Assays:
POLβ KO A2780cis cells [1] = experiment: Clonogenic assay, POLβ KO A2780cis; format: cell-based, human; conditions: vs POLβ proficient A2780cis
Procedure: Clonogenic assay: In the clonogenic assay (colony formation assays), 32 cells/cm2 were seeded in 6-well plates and left at 37°C in a 5% CO2 atmosphere. Cisplatin (5µM) and/or FEN1i (10µM) and/or Importazole (5 µM, Selleckem, S8446 ) were added at the indicated concentrations and the plates were left at 37 °C in a 5% CO 2 atmosphere for 14 days. Later, the plates were washed with PBS, fixed and stained with a crystal violet, acetic acid and methanol solution and colonies were counted. […]

PEO4 cells [2] = experiment: Cell cycle progression, PEO4; format: cell-based, human; conditions: FEN1i plus cisplatin
Procedure: (§1) with ice cold PBS and fixed in 70% ethanol for 1h at -20°C. After removal of the fixative solution by centrifugation, cells were stained with 2 µg/ml of phospho-Histone (γH2AX) Ser139 (16202A, Millipore, UK) to detect DSBs.
(§2) Cell cycle progression: Cells were treated with 20 µg/ml RNase A (12091021, Invitrogen) and then 10 µg/ml Propidium Iodide (P4170, Sigma Aldrich) was added to determine the cell cycle distribution. The samples were analysed on a Beckman-Coulter FC500 flow cytometer using a 488nm laser for excitation and emission data for PI collected using a 620nm bandpass filter (FL3) and a 525nm bandpass filter (FL1) for FITC-anti-phospho-Histone H2A.X. […]
(§3) Graphical representation and statistical analysis was performed in GraphPad Prism 7 (GraphPad, La Jolla, USA).
(§4) 3D Spheroid assays: A2780_control and A2780 FEN1_ KO as well as A2780cis_control and A2780cis FEN1_ KO cells were seeded at 4500 cells/cm2 density in ultra-low attachment 6-well plates (174932, Thermo Fisher Scientific) and cultured in 3D Tumorsphere Medium (C28070, PromoCell, UK) at 37°C in a 5% CO2 atmosphere. Cells were keep in culture for 7-10 days, toping up with fresh medium every two days until spheroids structures were formed.

[3] = molecular target: T1, Recombinant human FEN1 protein (Homo sapiens, UniProt P39748); experiment: radio-labeled FEN1 cleavage assay; format: biochemical; conditions: 3 nM FEN1, 37 °C, 10 min
T1 construct: made in house

PEO4 cells [4] = experiment: Annexin V apoptosis detection, PEO4; format: cell-based, human; conditions: FEN1i plus cisplatin
Procedure: The samples were analysed on a Beckman-Coulter FC500 flow cytometer using a 488nm laser for excitation and emission data for PI collected using a 620nm bandpass filter (FL3) and a 525nm bandpass filter (FL1) for FITC-anti-phospho-Histone H2A.X.
(§5) Apoptosis detection: Annexin V detection kit (556547, BD Biosciences) was used to quantify apoptotic cells. Briefly, cells were trypsinized, washed with PBS and the cellular pellet was re-suspended in Anexin Binding Buffer (1×). Following, FITC Anexin V and Propidium Iodide were added to the cells. After incubation, Anexin binding Buffer (1×) was added to each tube. All the samples were analysed on a Beckman-Coulter FC500 flow cytometer. The percentage of apoptotic cells was determined (late apoptotic = FITC-Annexin V positive, PI positive early apoptotic = FITC-Annexin V positive, PI negative; live cells = FITC-Annexin V negative, PI negative) and compared for untreated and treated samples. Graphical representation and statistical analysis was performed in GraphPad Prism 7 (GraphPad, La Jolla, USA).
as §4, with “Cells were keep in culture for 7-10 days, toping up with fresh medium every two days until spheroids structures were formed.” left out

POLβ KO A2780cis cells [5] = experiment: Cell cycle progression, POLβ KO A2780cis; format: cell-based, human; conditions: FEN1i-treated
Procedure: as §1, §2, §3, §4

PEO1 cells = experiment: Cell cycle progression, PEO1; format: cell-based, human; conditions: FEN1i monotherapy
Procedure: as §1, §2, §3, §4

ATM-deficient HeLa cells = experiment: FEN1 inhibitor cytotoxicity, ATM-deficient HeLa; format: cell-based; conditions: vs HeLa control
[6] = test system: BRCA2_KD HeLa silenciX cells; experiment: Clonogenic assay, BRCA2_KD HeLa; format: cell-based; conditions: vs control HeLa cells
Procedure: Clonogenic assay: In the clonogenic assay (colony formation assays), 32 cells/cm2 were seeded in 6-well plates and left at 37°C in a 5% CO2 atmosphere. Cisplatin (5µM) and/or FEN1i (10µM) and/or Importazole (5 µM, Selleckem, S8446 ) were added at the indicated concentrations and the plates were left at 37 °C in a 5% CO 2 atmosphere for 14 days. Later, the plates were washed with PBS, fixed and stained with a crystal violet, acetic acid and methanol solution and colonies were counted.
Nuclear and cytoplasmic extract: Cells were harvest by trypsinization, washed with PBS and centrifuged at 1000×g for 5min. […] Protein level were then quantified prior to use in western blots.
BCA protein quantification: Protein quantification was done using the Pierce BCA kit assay by Thermo Fisher Scientific. […] The plate was incubated at 37°C during 30 min in the dark and the absorbance was measured by FLUOstar OPTIMA, UK/ Infinite® F50 (UK) microplate reader at 590 nm. […]
Western Blot Analysis: Cells were harvested and lysed in RIPA buffer (R0278, Sigma) with the addition of protease cocktail inhibitor (P8348, Sigma), phosphatase inhibitor cocktail 2 (P5726, Sigma) and phosphatase inhibitor cocktail 3 (P0044, Sigma) and stored at - 20°C. Protein was quantified using BCA Protein Assay kit (23225, Thermo Fisher). […]

POLβ KO A2780cis cells [7] = experiment: Annexin V apoptosis detection, POLβ KO A2780cis; format: cell-based, human; conditions: FEN1i-treated
Procedure: as §5, §4

T1 sequence (P39748 whole entry): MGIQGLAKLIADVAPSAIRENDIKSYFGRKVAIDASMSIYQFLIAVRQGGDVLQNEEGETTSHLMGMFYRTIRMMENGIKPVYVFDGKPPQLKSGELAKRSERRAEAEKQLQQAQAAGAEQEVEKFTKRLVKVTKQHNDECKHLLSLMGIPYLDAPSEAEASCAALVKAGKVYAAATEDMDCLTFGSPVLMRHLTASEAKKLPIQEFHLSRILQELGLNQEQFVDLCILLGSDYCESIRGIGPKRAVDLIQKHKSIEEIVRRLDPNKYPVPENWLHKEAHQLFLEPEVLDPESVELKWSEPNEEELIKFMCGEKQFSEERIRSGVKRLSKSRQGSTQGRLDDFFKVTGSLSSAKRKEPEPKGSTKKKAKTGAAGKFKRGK

FEN1 inhibition in cleavage assay [3]: confirmed FEN1 inhibition
SMILES: Cc1csc2c1c(=O)n(O)c(=O)n2-c1ccccc1 [PTPD, 3-hydroxy-5-methyl-1-phenylthieno [2,3 d]pyrimidine-2,4(1H,3H)-dione]
sensitivity to FEN1 inhibitor (POLβ KO A2780cis cells [1]): more sensitive to FEN1 inhibition
cell cycle effect (PEO4 cells [2]): G2/M cell cycle arrest
apoptosis (PEO4 cells [4]): accumulation of apoptotic cells
cell cycle effect (POLβ KO A2780cis cells [5]): G2/M cell cycle arrest
cell cycle effect (PEO1 cells): S-phase and G2/M-phase cell cycle arrest
sensitivity to FEN1 inhibitor (ATM-deficient HeLa cells): did not observe increased sensitivity
sensitivity to FEN1 inhibitor [6]: sensitive to FEN1i compared to control HeLa cells
apoptosis (POLβ KO A2780cis cells [7]): apoptosis
